Laboratory results: the NIST ThermoML archive (doi:10.1016/j.jct.2012.11.011)

Experiment: xn = mol fraction of the nth substance listed
Conditions: Liquid, Vibrating tube method

CCCCCCCCCC [decane] + COC(=O)OC
mass density [kg/m3]
Conditions | x2 = 0.0438 | x2 = 0.11 | x2 = 0.2348 | x2 = 0.3516 | x2 = 0.3944 | x2 = 0.557 | x2 = 0.8035 | x2 = 0.95
288.15 K, 100 kPa | 739 | 749 | 769.2 | 792 | 801.9 | 844.5 | 944.4 | 1034.2
288.15 K, 5000 kPa | 742.7 | 753.6 | 773.1 | 796 | 805.9 | 848.7 | 948.8 | 1038.5
288.15 K, 10000 kPa | 746.2 | 757.2 | 776.8 | 799.9 | 809.8 | 852.6 | 953.1 | 1042.8
288.15 K, 20000 kPa | 752.7 | 763.9 | 783.7 | 807 | 817 | 858.8 | 963.1 | 1050.8
288.15 K, 30000 kPa | 758.8 | 769.8 | 790 | 813.4 | 823.5 | 865 | 971.2 | 1058.2
288.15 K, 40000 kPa | 764.3 | 775.8 | 796.1 | 819.7 | 829.3 | 872.6 | 977.8 | 1065.3
298.15 K, 100 kPa | 731.3 | 741.9 | 760.8 | 783.2 | 793.3 | 831.4 | 932.1 | 1021.4
298.15 K, 5000 kPa | 735.6 | 746.2 | 765.5 | 787.9 | 798 | 836.7 | 937.6 | 1026.5
298.15 K, 10000 kPa | 739 | 749.7 | 769 | 791.4 | 801.8 | 840.5 | 942.1 | 1030.7
298.15 K, 20000 kPa | 745.9 | 756.6 | 776.2 | 799 | 809.4 | 848.3 | 951.1 | 1039
298.15 K, 30000 kPa | 752.2 | 763.1 | 782.9 | 805.9 | 816.6 | 856.1 | 959.2 | 1047
298.15 K, 40000 kPa | 758.1 | 769 | 789 | 812.2 | 823 | 863.2 | 966.8 | 1054.4
308.15 K, 100 kPa | 723.6 | 733.9 | 752.5 | 774.3 | 783.8 | 820.2 | 920.7 | 1008.8
308.15 K, 5000 kPa | 727.7 | 738.2 | 756.9 | 778.9 | 788.5 | 825.6 | 926.3 | 1013.8
308.15 K, 10000 kPa | 731.7 | 742.2 | 761 | 783.2 | 792.8 | 830.8 | 931.6 | 1018.5
308.15 K, 20000 kPa | 739 | 749.7 | 768.6 | 790.9 | 801.1 | 840 | 941.1 | 1027.6
308.15 K, 30000 kPa | 745.6 | 756.4 | 775.6 | 798.3 | 808.4 | 848.4 | 949.7 | 1035.9
308.15 K, 40000 kPa | 751.8 | 762.6 | 782.1 | 804.9 | 815.3 | 856.1 | 957.8 | 1043.7

CCOC(=O)OCC [diethyl carbonate] + CCCCCCCC
mass density [kg/m3]
Conditions | x1 = 0.0522 | x1 = 0.1042 | x1 = 0.1671 | x1 = 0.322 | x1 = 0.3657 | x1 = 0.5075 | x1 = 0.6922 | x1 = 0.8002 | x1 = 0.9206 | x1 = 0.9459
288.15 K, 100 kPa | 716 | 726.1 | 738.6 | 772.6 | 784 | 820.5 | 874.2 | 908.5 | 951 | 959.8
288.15 K, 5000 kPa | 720.1 | 730.4 | 742.8 | 778.1 | 788.4 | 824.9 | 879.4 | 912.8 | 954.9 | 964.3
288.15 K, 10000 kPa | 723.9 | 734.4 | 746.8 | 782.1 | 792.6 | 829 | 883.7 | 917 | 958.8 | 968.6
288.15 K, 20000 kPa | 731.2 | 741.6 | 754.1 | 789.6 | 800.1 | 836.8 | 891.6 | 925 | 966.5 | 976.3
288.15 K, 30000 kPa | 737.8 | 748.2 | 760.7 | 796.5 | 807.1 | 843.9 | 898.5 | 932.1 | 973.8 | 983.3
288.15 K, 40000 kPa | 744 | 754.5 | 767.2 | 803.1 | 813.7 | 850.5 | 907.6 | 939 | 980.7 | 990.3
298.15 K, 100 kPa | 707.7 | 717.7 | 729.9 | 764.5 | 774.7 | 810.7 | 864.7 | 897.7 | 939.2 | 949.3
298.15 K, 5000 kPa | 712.5 | 722.5 | 734.7 | 769.5 | 779.7 | 815.8 | 869.8 | 902.8 | 944.2 | 953.8
298.15 K, 10000 kPa | 716.3 | 726.3 | 738.5 | 773.4 | 783.7 | 819.8 | 873.8 | 906.9 | 948.2 | 957.7
298.15 K, 20000 kPa | 723.9 | 734 | 746.3 | 781.4 | 791.8 | 828.1 | 882 | 915.2 | 956.4 | 965.9
298.15 K, 30000 kPa | 730.8 | 741 | 753.4 | 788.8 | 799.1 | 835.6 | 889.8 | 922.8 | 964 | 973.6
298.15 K, 40000 kPa | 737.2 | 747.4 | 759.9 | 795.5 | 805.9 | 842.4 | 896.9 | 929.9 | 971.1 | 980.7
308.15 K, 100 kPa | 699.6 | 709.3 | 721.2 | 755.4 | 765.4 | 801 | 854.3 | 887.1 | 928 | 937.6
308.15 K, 5000 kPa | 704.2 | 714 | 725.9 | 760.4 | 770.4 | 805.9 | 859.3 | 892 | 932.9 | 942.6
308.15 K, 10000 kPa | 708.7 | 718.5 | 730.5 | 765.1 | 775.1 | 810.8 | 864.1 | 896.8 | 937.6 | 947.3
308.15 K, 20000 kPa | 716.6 | 726.5 | 738.7 | 773.3 | 783.6 | 819.4 | 873 | 905.6 | 946.3 | 956
308.15 K, 30000 kPa | 723.8 | 733.9 | 746.2 | 781.1 | 791.2 | 827.2 | 880.9 | 913.7 | 954.3 | 964.1
308.15 K, 40000 kPa | 730.5 | 740.7 | 753 | 788 | 798.3 | 834.6 | 888.3 | 921.2 | 961.9 | 971.5
